From BindingDB's records for doi:10.1038/nchembio753 (Stanford University School of Medicine, 2006) come the findings set out here.

This experiment concerns the target Sonic hedgehog protein (Mus musculus, UniProt Q62226). As to the kind of experiment: Activation of Shh in mouse Shh Light2 cells after 30 hrs by luciferase reporter gene assay.

Sonic hedgehog protein, sequence (Q62226 25-198 limits assumed): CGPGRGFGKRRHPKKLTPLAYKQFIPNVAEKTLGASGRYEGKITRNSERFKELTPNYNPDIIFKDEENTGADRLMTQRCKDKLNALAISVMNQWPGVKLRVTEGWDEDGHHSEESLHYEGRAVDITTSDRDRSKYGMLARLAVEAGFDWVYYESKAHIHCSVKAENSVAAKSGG

Turning to `c1ccc2c(Oc3nc(Nc4ccc(N5CCOCC5)cc4)c4ncn(C5CCCCC5)c4n3)cccc2c1` [Purmorphamine], the EC50 is 1000 nM.
